The source of these data is US8173696B2, “Inhibitors of cysteine proteases and methods of use thereof” (Baylor University, priority 2007, dated 2012).

Read-outs that look alike come from different tables or passages of the source.

The target in one assay is T1, Human liver cathepsin L (Homo sapiens, UniProt P07711).
T1 construct: from tissue; host or cells: human liver
Briefly: Cathepsin L inhibition in vitro (Z-FR-AMC fluorescence). Type of assay: biochemical. Here is the method:
Human liver cathepsin L (1 nM) was incubated in 50 mM sodium acetate buffer, pH 5.5 containing 1 mM EDTA, 2 mM DTT, 0.001% (v/v) brij 35 with potential inhibitors at 20 different concentrations (from 0.05 nM to 50 μM) at 25° C. for 5 minutes before 100 μL substrate (benzyloxycarbonyl-L-phenylalanyl-L-arginyl-7-amido-4-methylcoumarin, abbreviated as Z-FR-AMC, 50 μM in final assay condition) was added to the enzyme-inhibitor mixture; total volume was 200 μL. Controls were performed using enzyme alone, substrate alone, and enzyme with DMSO. […] Spectra were taken at 3-sec intervals for 3 minutes. IC50 values were determined by non-linear regression analysis using vo(inh)=VMAX/{1+10(logIC50−x)*Hillslope} and Prism software (GraphPad).

The target in another assay is Cat B (Homo sapiens, UniProt P07858). Briefly: Cathepsin B inhibition in vitro. Type of assay: biochemical. The method, then:
For in vitro cysteine protease inhibition determinations, a compound's effectiveness can be given by an IC50 value. In these assays, the enzyme to be inhibited (e.g., a cruzain or cruzipain, a rhodesain, a brucipain, a congopain, a falcipain, CPB2.8 Delta CTE, a cathepsin-L, cathepsin-B, a cathepsin-H, a cathepsin-K, a cathepsin-S) is first incubated with varying concentrations (about 20-50,000 nM) of a test compound. To this is added a short peptide substrate of the enzyme of 1 to 10 amino acids, usually a di- or tri-peptide substrate, which is labeled with either a fluorogenic or chromogenic moiety. An exemplary chromogenic moiety is p-nitro-anilide (pNA). […] Exemplary peptide substrates include Phe-Arg, Arg-Arg, Phe-Arg-X (X=Ala, Arg), and Phe-X-Ser-Arg-Gln (X=Arg, 4-aminomethyl-phenylalanine (Arm), 4-aminomethyl-N-isopropyl-phenylalanin-e (laf), 4-piperidinyl-alanine (Ppa) or 4-aminocyclohexyl-alanine (Aca)). Cleavage of the labeled substrate induces a chromogenic or fluorescent signal that is measured using spectrophotometer or a spectrofluorometer, respectively. Signals induced in the presence of varying concentrations of test compound are measured in comparison to a positive control of enzyme and substrate and a negative control of enzyme in diluent (e.g., DMSO). Spontaneous cleavage of substrate is measured in controls with substrate alone. IC50 values are determined graphically using compound inhibitor concentrations in the linear portion of a plot of inhibition versus log [I].

A further assay deals with Cruzain (Trypanosoma cruzi, UniProt P25779). In words: biochemical. Type of assay: biochemical. Conditions: Table A; 0.1 nM cruzain, pH 5.50, 25° C., 10 μM Z-Phe-Arg-AMC. The method, then:
Cruzain (0.1 nM) in 100 mM sodium acetate buffer (pH 5.50) containing 5 mM DTT was preincubated for 5 min at 25° C. with inhibitor.

Assay [1] deals with cathepsin L. In words: Inhibition of activated cathepsin L secreted in DU-145 cell conditioned media. Conditions: compound 20 μM, replicate samples a-c. Type of assay: cell-based. The method, then:
(§1) A prostrate carcinoma derived cell line (DU-145) was maintained in free phenol red DMEM supplemented with 10% fetal bovine serum, 1% glutamine, 1% glutamax, 1% Penicillin-Streptomycin and 1 mM sodium pyruvate, at 37° C. in an atmosphere of 95% air/5% CO2. DU145 was plated at 4×10^6 cells/10 cm Petri dish for dense, super confluent density. These cultures were incubated for 3 days before collection. Twenty-four hours prior to harvesting, cells were fed with serum-free media or serum-free media containing inhibitors at a final concentration of 20 μM. On the day of harvesting, the serum-free medium was collected for assay of Cathepsin L activity secreted in the medium. The cells were rinsed in cold PBS (pH 7.2) and collected in cold PBS containing […]. The cells were lysed using a Sonicator (Misonix 3000) at medium setting with pauses at 0° C. for temperature equilibration. Then the homogenate was centrifuged at 13,000×g for 20 min and the supernatant saved. […] Fluorescence was measured in a Fluoro Max 2 (Jobin Yvon) spectrofluorometer at an excitation wavelength of 355 nm and an emission wavelength of 460 nm. The substrate is hydrolyzed by cathepsin L and to a smaller extent by cathepsin B, therefore the activity is referred to as cathepsin L+B activity. Data analysis was performed using Prism software (GraphPad version 4). Data corresponding to cathepsin L activity (after activation) in cell conditioned media in the presence of Compound 14 (20 μM) is summarized in Table 3 below. Data corresponding to cathepsin L activity (after activation) in cell conditioned media in the presence of Compound 27 (20 μM) is summarized in Table 4 below.

Assay [2] concerns cathepsin L. In words: Inhibition of activated cathepsin L in DU-145 cell lysates. Type of assay: cell-based. The following applies: DU-145 cell lysates preincubated for 24 h with compound, following removal of media, replicate samples a-c; for activity (cathepsin L activity after activation): control 6.93E−03; for cps (cathepsin L activity after activation): control 26950. The method, then: as §1, with “cell lysates preincubated for 24 h with” for “cell conditioned media in the presence of”, “14 and following the removal of media” for “14 (20 μM)”, “Table 5” for “Table 3”, “27 and following the removal of media” for “27 (20 μM)”, “Table 6” for “Table 4”

The mark [3] stands for this setting: Table A, 1 nM human liver cathepsin L, pH 5.5, 25° C., 50 μM Z-FR-AMC, read-out: Cat L IC50.

T1 sequence (P07711 114-333): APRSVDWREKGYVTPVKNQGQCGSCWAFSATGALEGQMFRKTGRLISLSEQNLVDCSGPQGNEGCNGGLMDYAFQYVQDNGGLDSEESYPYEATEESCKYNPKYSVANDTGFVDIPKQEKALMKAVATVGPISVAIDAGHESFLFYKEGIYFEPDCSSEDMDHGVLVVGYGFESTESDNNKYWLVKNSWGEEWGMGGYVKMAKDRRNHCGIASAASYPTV
Cruzain, sequence (P25779 123-467): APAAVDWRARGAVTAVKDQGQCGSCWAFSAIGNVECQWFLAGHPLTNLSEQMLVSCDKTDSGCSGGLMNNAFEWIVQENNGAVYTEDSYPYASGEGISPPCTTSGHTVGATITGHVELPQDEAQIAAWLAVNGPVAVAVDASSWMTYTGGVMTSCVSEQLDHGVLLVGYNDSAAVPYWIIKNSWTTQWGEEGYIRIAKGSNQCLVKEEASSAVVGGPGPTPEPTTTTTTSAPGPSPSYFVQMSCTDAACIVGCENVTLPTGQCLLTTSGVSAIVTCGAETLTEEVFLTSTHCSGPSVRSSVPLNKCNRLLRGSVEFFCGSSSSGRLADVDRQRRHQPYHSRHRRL

As for `CC/C(=N\NC(N)=S)c1cccc(Br)c1` [Compound 5, 3-Bromopropiophenone thiosemicarbazone], the IC50 at Human liver cathepsin L (Table B, unit inferred, read-out: Cat L) is above 10000 nM; at Cat B (Table B, unit inferred, read-out: Cat B), above 50000 nM.
On to `CC/C(=N\NC(N)=S)c1cccc([N+](=O)[O-])c1` [Compound 6, 3-Nitropropiophenone thiosemicarbazone], for which the IC50 on Human liver cathepsin L (setting [3]) was 5790 nM; against Cruzain, 860 nM.
With `CC/C(=N\NC(N)=S)c1cccc(O)c1` [Compound 7, 1-(3-Hydroxyphenyl)-1-propanone thiosemicarbazone], the IC50 at Human liver cathepsin L (setting [3]) worked out at 2570 nM.
On to `CC/C(=N\NC(N)=S)c1cccc(N)c1` [Compound 8, 3-Aminopropiophenone thiosemicarbazone], for which the IC50 came to 1640 nM on Human liver cathepsin L (setting [3]) and 3640 nM against Cruzain.
In the case of `NC(=S)N/N=C(\c1ccccc1)c1cccc(Br)c1` [Compound 13, Phenyl(3-bromophenyl) ketone thiosemicarbazone], the IC50 amounted to 16200 nM at Human liver cathepsin L (setting [3]) and 80 nM on Cruzain.
Consider `NC(=S)N/N=C1\CCCc2c(Br)cccc21` [Compound 20, 5-Bromo-1-tetralone thiosemicarbazone], for which the results for the IC50 at Human liver cathepsin L (setting [3]) and against Cruzain were 367 nM and 1200 nM, respectively.
For `NC(=S)N/N=C1\CCCc2ccc(Br)cc21` [Compound 21, 7-Bromo-1-tetralone thiosemicarbazone] the same measures were 619 nM and 17 nM.
For `NC(=S)N/N=C1\CCS(=O)(=O)c2ccc(Br)cc21` [Compound 23, 6-Bromo-1,1-dioxo-1-thiochroman-4-one thiosemicarbazone] the same measures were 1 nM and 210 nM.
For `NC(=S)N/N=C1\CCS(=O)(=O)c2c(Br)cc(Br)cc21` [Compound 24, 6,8-Dibromo-1,1-dioxo-1-thiochroman-4-one thiosemicarbazone] the same measures were 716 nM and 820 nM.
On to `NC(=S)N/N=C1\CCOc2ccccc21` [Compound 26], for which the IC50 on Human liver cathepsin L (setting [3]) turned out to be 6380 nM.
For `NC(=S)N/N=C1\CCS(=O)(=O)c2ccccc21` [Compound 27], the IC50 at Human liver cathepsin L (setting [3]) came to 5050 nM. The “activity (cathepsin L activity after activation)” value was 0.000101 µM/s in the assay on cathepsin L [1] (control 1.50E−03, listed as 27a); 9.46e-05 µM/s with cathepsin L [1] (control 1.50E−03, listed as 27b); 9.81e-05 µM/s in the assay on cathepsin L [1] (control 1.50E−03, listed as 27c); 0.00308 µM/s with cathepsin L [2] (listed as 27a); 0.00255 µM/s in the assay with cathepsin L [2] (listed as 27b); 0.00275 µM/s in the assay on cathepsin L [2] (listed as 27c). In addition, the “cps (cathepsin L activity after activation)” value amounted to 393.7 cps with cathepsin L [1] (control 5848, listed as 27a); 367.5 cps in the assay on cathepsin L [1] (control 5848, listed as 27b); 381.1 cps in the assay on cathepsin L [1] (control 5848, listed as 27c); 11990 cps with cathepsin L [2] (listed as 27a); 9918 cps in the assay with cathepsin L [2] (listed as 27b); 10690 cps in the assay with cathepsin L [2] (listed as 27c).
Take `CC(=O)C1=CCCc2ccccc21` [Compound 37, [1-(3,4-Dihydronaphthalenyl)]methyl ketone]: the IC50 on Human liver cathepsin L (setting [3]) is above 10000 nM.
Still for that read-out and setting: to `C=CC(=O)C1=CCCc2ccc(Br)cc21` [Compound 38] belongs 372 nM.
For the molecule `NC(=S)N/N=C1\CCC(c2ccc(Br)cc2)C1` (stereo not shown) [Compound 46], the IC50 on Human liver cathepsin L (setting [3]) is above 10000 nM; at Cruzain, above 5000 nM.
As to `NC(=S)N/N=C1\CCCC(c2ccc(Br)cc2)C1` (stereo not shown) [Compound 47], the results for the IC50 on Human liver cathepsin L (setting [3]) and against Cruzain were 2910 nM and above 7000 nM, respectively.
For `NC(=S)N/N=C1\CCc2ccccc2O1` [Compound 48] the same measures were 2450 nM and above 17000 nM.
Turning to `NC(=S)N/N=C1\CCc2ccccc21` [Compound 49], at Human liver cathepsin L (setting [3]), the IC50 is above 10000 nM.
Take `NC(=S)N/N=C1\CCc2ccc(Br)cc2C1` [Compound 69, 7-Bromo-2-tetralone thiosemicarbazone]: the IC50 on Human liver cathepsin L (setting [3]) was 4260 nM; on Cruzain, above 17000 nM; at Cat B (Table A, read-out: Cat B IC50), below 50000 nM.
As to `NC(=S)N/N=C1\CCc2c(Br)cc(Br)cc2C1` [Compound 70, 5,7-Dibromo-2-tetralone thiosemicarbazone], the IC50 was 10900 nM at Human liver cathepsin L (setting [3]); 4480 nM against Cruzain; above 50000 nM on Cat B (Table A, read-out: Cat B IC50).
